Values of other authors as cited in US20220339173A1, “ORAL COMPOSITION FOR IMPROVING MEMORY-LEARNING ABILITY” (priority 2019, published 2022).

System: c-Fos activity

In the case of phosphatidylserine, the “c-Fos activity in the hippocampus” value (hippocampus) is listed as “no changes” and the “c-Fos activity in the paraventricular nucleus” value (paraventricular nucleus) is listed as “changes in c-Fos activity in the brain region are found”.
